Legend:
Details in all cases: 72 h
[1] = tested on: HepG2; experiment: drug sensitivity score (DSS) for viability; higher = more toxic; extreme values may be limits of the assay
[2] = tested on: Caco-2; experiment: as above
[3] = tested on: U2OS; experiment: as above
[4] = tested on: Calu-3; experiment: as above
[5] = tested on: Vero E6; experiment: as above
[6] = tested on: HepG2; experiment: cell viability relative to DMSO; higher = less toxic
[7] = tested on: Caco-2; experiment: as above
[8] = tested on: U2OS; experiment: as above
[9] = tested on: Calu-3; experiment: as above
[10] = tested on: Vero E6; experiment: as above
[11] = tested on: HepG2; experiment: relative viability EC50 (midpoint between 100% and the lowest measured viability); higher = less toxic
[12] = tested on: Caco-2; experiment: as above
[13] = tested on: U2OS; experiment: as above
[14] = tested on: Calu-3; experiment: as above
[15] = tested on: Vero E6; experiment: as above

| SMILES | drug sensitivity score [1] | drug sensitivity score [2] | drug sensitivity score [3] | drug sensitivity score [4] | drug sensitivity score [5] | cell viability ([6]; 1 nM) [%] | cell viability ([6]; 10 nM) [%] | cell viability ([6]; 100 nM) [%] | cell viability ([6]; 1000 nM) [%] | cell viability ([6]; 10000 nM) [%] | cell viability ([7]; 1 nM) [%] | cell viability ([7]; 10 nM) [%] | cell viability ([7]; 100 nM) [%] | cell viability ([7]; 1000 nM) [%] | cell viability ([7]; 10000 nM) [%] | cell viability ([8]; 1 nM) [%] | cell viability ([8]; 10 nM) [%] | cell viability ([8]; 100 nM) [%] | cell viability ([8]; 1000 nM) [%] | cell viability ([8]; 10000 nM) [%] | cell viability ([9]; 1 nM) [%] | cell viability ([9]; 10 nM) [%] | cell viability ([9]; 100 nM) [%] | cell viability ([9]; 1000 nM) [%] | cell viability ([9]; 10000 nM) [%] | cell viability ([10]; 1 nM) [%] | cell viability ([10]; 10 nM) [%] | cell viability ([10]; 100 nM) [%] | cell viability ([10]; 1000 nM) [%] | cell viability ([10]; 10000 nM) [%] | relative viability EC50 [11] [µM] | relative viability EC50 [12] [µM] | relative viability EC50 [13] [µM] | relative viability EC50 [14] [µM] | relative viability EC50 [15] [µM] |
| --- | --- | --- | --- | --- | --- | --- | --- | --- | --- | --- | --- | --- | --- | --- | --- | --- | --- | --- | --- | --- | --- | --- | --- | --- | --- | --- | --- | --- | --- | --- | --- | --- | --- | --- | --- |
| Nc1ncnc2c1ncn2CCOCP(=O)(O)O [adefovir] | 0 | 0 | 0 | 0 | 0 | 104 | 99.6 | 98.5 | 98.7 | 101 | 106 | 100 | 90.2 | 85.7 | 110 | 90 | 99.1 | 94.1 | 98 | 100 | 97.4 | 103 | 104 | 98.2 | 96.2 | 109 | 90.7 | 91.2 | 104 | 108 | > 10 | > 10 | > 10 | > 10 | > 10 |
| C[C@@H](N)Cc1c[nH]c2ccc(O)cc12 [alpha-methylserotonin] | 0 | 0 | 0 | 0 | 0 | 105 | 102 | 100 | 96.9 | 105 | 96.1 | 93 | 88 | 92.8 | 101 | 99 | 102 | 99.8 | 97.4 | 107 | 89.6 | 99.1 | 95.3 | 92.9 | 91.1 | 91.1 | 94.5 | 94.4 | 90.3 | 104 | > 10 | > 10 | > 10 | > 10 | > 10 |
| CO[C@H]1/C=C\C=C(/C)C(=O)NC2=CC(=O)C(NCCN(C)C)=C(C[C@@H](C)C[C@H](OC)[C@H](O)[C@@H](C)/C=C(\C)[C@@H]1OC(N)=O)C2=O [alvespimycin] | 36 | 13.9 | 26.6 | 16.4 | 12.8 | 106 | 57.9 | 1.3 | 1.4 | -0.1 | 98.4 | 90.3 | 82.9 | 39.7 | 1.6 | 97.7 | 91.3 | 30.8 | 2.5 | 1 | 97.3 | 88.4 | 67.1 | 36 | 20 | 93.4 | 98.4 | 94.9 | 37 | 10.1 | 0.0114 | 0.544 | 0.0542 | 0.148 | 0.587 |
| CN1CC[C@H](c2c(O)cc(O)c3c(=O)cc(-c4ccccc4Cl)oc23)[C@H](O)C1 [alvocidib] | 22.1 | 14.7 | 18.1 | 14.5 | 17.8 | 100 | 106 | 59.3 | 9.5 | 7.2 | 104 | 99.3 | 93.3 | 25.5 | 30.2 | 98.7 | 101 | 95.4 | 3 | 3.4 | 89.9 | 98.4 | 80.4 | 36.8 | 37.4 | 102 | 102 | 95.2 | 5.5 | 3.4 | 0.111 | 0.242 | 0.28 | 0.138 | 0.29 |
| CC[N+](CC)(CCNC(=O)C(=O)NCC[N+](CC)(CC)Cc1ccccc1Cl)Cc1ccccc1Cl [ambenonium] | 0 | 0 | 0 | 0 | 0 | 98.6 | 105 | 96.6 | 100 | 105 | 94.7 | 96 | 93.6 | 93.9 | 92.5 | 97.7 | 96.3 | 100 | 94.9 | 100 | 103 | 99.8 | 103 | 97.6 | 141 | 96.4 | 95.5 | 97.9 | 93.1 | 95.3 | > 10 | > 10 | > 10 | > 10 | > 10 |
| CCN1CCCC1CNC(=O)c1cc(S(=O)(=O)CC)c(N)cc1OC (stereo not given) [amisulpride] | 0 | 0 | 0 | 0 | 0 | 104 | 104 | 94.6 | 99.3 | 102 | 98.8 | 88.6 | 96.7 | 97.1 | 96.1 | 103 | 99.9 | 102 | 98.5 | 103 | 96.4 | 103 | 99.2 | 104 | 103 | 98.6 | 106 | 99.4 | 98.5 | 98.8 | > 10 | > 10 | > 10 | > 10 | > 10 |
| N#C[C@H](O[C@@H]1O[C@H](CO[C@@H]2O[C@H](CO)[C@@H](O)[C@H](O)[C@H]2O)[C@@H](O)[C@H](O)[C@H]1O)c1ccccc1 [amygdalin] | 0 | 0 | 0 | 0 | 0 | 100 | 98.8 | 104 | 101 | 96.6 | 98.4 | 104 | 110 | 92.8 | 104 | 96.9 | 105 | 100 | 104 | 101 | 99.2 | 105 | 93.3 | 109 | 107 | 101 | 103 | 96 | 95.5 | 102 | > 10 | > 10 | > 10 | > 10 | > 10 |
| O=C1NC(=O)c2c1c1c3ccccc3[nH]c1c1[nH]c3ccccc3c21 [arcyriaflavin-a] | 12.6 | 0.3 | 0 | 0 | 0 | 91.7 | 101 | 86.3 | 43.3 | 47.4 | 98.1 | 107 | 99.9 | 98.9 | 85.4 | 104 | 99.8 | 101 | 96.9 | 93.7 | 105 | 112 | 95.6 | 104 | 106 | 103 | 103 | 99.5 | 92.1 | 91.7 | 0.158 | > 10 | > 10 | > 10 | > 10 |
| CC[C@H](C)[C@H](N)C1=N[C@H](C(=O)N[C@@H](CC(C)C)C(=O)N[C@H](CCC(=O)[O-])C(=O)N[C@H](C(=O)N[C@H]2CCCCNC(=O)[C@H](CC(N)=O)NC(=O)[C@@H](CC(=O)[O-])NC(=O)[C@H](Cc3cnc[nH]3)NC(=O)[C@@H](Cc3ccccc3)NC(=O)[C@H]([C@@H](C)CC)NC(=O)[C@@H](CCCN)NC2=O)[C@@H](C)CC)CS1.[Zn+2] [bacitracin-zinc] | 0 | 0 | 0 | 0 | 0 | 96.9 | 100 | 110 | 93.6 | 111 | 93.8 | 90.5 | 104 | 104 | 110 | 92.8 | 99.4 | 96.4 | 103 | 104 | 93.7 | 106 | 112 | 99.9 | 106 | 96.2 | 89.9 | 100 | 95.5 | 112 | > 10 | > 10 | > 10 | > 10 | > 10 |
| CCC(=O)OCC(=O)[C@@]1(OC(=O)CC)[C@@H](C)C[C@H]2[C@@H]3CCC4=CC(=O)C=C[C@]4(C)[C@@]3(Cl)[C@@H](O)C[C@@]21C [beclomethasone-dipropionate] | 2.6 | 0 | 0 | 0 | 0 | 97.3 | 95.7 | 99.2 | 81.3 | 80.2 | 97.1 | 97.3 | 94.3 | 104 | 111 | 96.8 | 102 | 95.9 | 99.1 | 97.2 | 104 | 106 | 97 | 101 | 88.6 | 95.8 | 90.6 | 102 | 80.1 | 99.5 | > 10 | > 10 | > 10 | > 10 | > 10 |
| C/C(=C(\CCOP(=O)(O)O)SC(=O)c1ccccc1)N(C=O)Cc1cnc(C)nc1N [benfotiamine] | 0 | 0 | 0 | 0 | 0 | 95.1 | 92.4 | 88.4 | 92.7 | 97 | 99.7 | 101 | 91 | 94.6 | 89.1 | 99.1 | 101 | 95.7 | 98.5 | 99.5 | 97.2 | 96.9 | 95.8 | 95.4 | 92.1 | 100 | 98.3 | 98.9 | 97.4 | 96.2 | > 10 | > 10 | > 10 | > 10 | > 10 |
| O=C(O)c1ccccc1 [benzoic-acid] | 0 | 0 | 0 | 0 | 0 | 101 | 95.6 | 104 | 92.4 | 96.3 | 99 | 101 | 95.9 | 98.7 | 98.7 | 98.9 | 102 | 99.1 | 98.2 | 95.9 | 99.4 | 101 | 96.8 | 99.2 | 92.6 | 97.1 | 97.6 | 100 | 97.7 | 102 | > 10 | > 10 | > 10 | > 10 | > 10 |
| C[N+](C)(CCOc1ccccc1)Cc1ccccc1 [bephenium-hydroxynaphthoate] | 0 | 0 | 0 | 0 | 0 | 100 | 98.4 | 92.3 | 96.8 | 100 | 96.1 | 99.4 | 106 | 102 | 102 | 93.7 | 99.4 | 93.5 | 101 | 102 | 102 | 103 | 90 | 98 | 102 | 98.2 | 96.9 | 94.8 | 92.6 | 103 | > 10 | > 10 | > 10 | > 10 | > 10 |
| Oc1cccc(Nc2ccc(Nc3cccc(O)c3)nn2)c1 [beta-amyloid-synthesis-inhibitor] | 0 | 0 | 0 | 0 | 0 | 102 | 101 | 97.9 | 98.6 | 104 | 101 | 90.4 | 109 | 101 | 94.4 | 106 | 97.1 | 100 | 100 | 106 | 115 | 94.9 | 98.1 | 106 | 102 | 92.4 | 97.3 | 93.8 | 98 | 95.5 | > 10 | > 10 | > 10 | > 10 | > 10 |

Source: the supplement of paper PMC13380429
